Converted amounts (≈) assume the structure as drawn. A value given as a limit tells only on which side of the number the result lay.

This is an account of results in US9617256B2 (priority 2007, dated 2017).

The test system of assay [1] is AECO001 (ATCC25922). As to the kind of experiment: MIC broth microdilution, AECO001. The assay is classed as cell-based, E. coli. Conditions: Escherichia coli, ATCC25922, read-out: MIC AECO001. The essentials: (§1)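 Strains were grown overnight at 35° C. on Mueller-Hinton agar, suspended to 0.5 McFarland and diluted to a final 3×10^5–7×10^5 CFU/mL. They were then exposed to 2-fold serial drug dilutions in cation-adjusted Mueller-Hinton broth and incubated 18-24 hours at 35° C.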
(In general: In broth dilution the organism is exposed to a series of concentrations in liquid medium.)

The subject of assay [2] is AECO001 HSA AGP. As to the kind of experiment: MIC broth microdilution, AECO001 HSA AGP. The assay is classed as cell-based, E. coli. To be noted: Escherichia coli. On the procedure: Bacterial isolates were cultivated from −70° C. frozen stocks by overnight passages at 35° C. in ambient air on Mueller-Hinton agar (Beckton Dickinson, Franklin Lakes, N.J.). Clinical isolates tested were obtained from various geographically diverse hospitals in the US and abroad (Focus Diagnostics, Herndon, Va. and JMI, North Liberty, Iowa). Quality control strains were from the American Type Culture Collection (ATCC; Rockville, Md.). Additional primary panel strains were generated using standard molecular biology techniques.
Minimum Inhibitory Concentrations (MICs) were determined by the broth microdilution method in accordance with the Clinical and Laboratory Standards Institute (CLSI) guidelines. In brief, organism suspensions were adjusted to a 0.5 McFarland standard to yield a final inoculum between 3×10^5 and 7×10^5 colony-forming units (CFU)/mL. Drug dilutions and inocula were made in sterile, cation adjusted Mueller-Hinton Broth (Beckton Dickinson). An inoculum volume of 100 μL was added to wells containing 100 μL of broth with 2-fold serial dilutions of drug. All inoculated microdilution trays were incubated in ambient air at 35° C. for 18-24 hours. […] Performance of the assay was monitored by the use of laboratory quality-control strains and levofloxacin, a compound with a defined MIC spectrum, in accordance with CLSI guidelines.
*AECO001 is ATCC25922, AECO063 is ATCC25922 bearing an acrAB mutation, APAE001 is ATCC27853, APAE006 is a strain of P. aeruginosa in which all efflux pumps are inactivated, APAE006+PMBN indicates MICs with the indicated strain in the presence of 8 micrograms per milliliter of polymyxin B nonapeptide, AABA1060 is a clinical isolate of Acinetobacter baumannii, ASAU001 is a laboratory strain of S. aureus (ATCC29213).

Assay [3] has as its system AECO063 (ATCC25922 bearing an acrAB mutation). As to the kind of experiment: microbe, parasite or virus in culture. The assay is classed as cell-based, E. coli. To be noted: Escherichia coli, ATCC25922, read-out: MIC AECO063. The essentials:
as §1

Assay [4] deals with AABA1060 (clinical isolate of Acinetobacter baumannii). As to the kind of experiment: MIC broth microdilution, AABA1060. The assay is classed as cell-based. To be noted: Acinetobacter baumannii, read-out: MIC AABA1060. The essentials: as §1
The test system of assay [5] is ASAU001 (laboratory strain of S. aureus, ATCC29213). As to the kind of experiment: MIC broth microdilution, ASAU001. To be noted: Staphylococcus aureus, ATCC29213, read-out: MIC ASAU001. The format is cell-based. An outline of the steps:
as §1

The test system of assay [6] is APAE006 (strain of P. aeruginosa in which all efflux pumps are inactivated). As to the kind of experiment: microbe, parasite or virus in culture. The assay is classed as cell-based. Conditions: Pseudomonas aeruginosa, read-out: MIC APAE006, P. aeruginosa, all efflux pumps inactivated. The essentials:
(§2)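 (ambient air) in cation-adjusted MHB; inoculum from 0.5 McFarland suspensions, final 3×10^5–7×10^5 CFU/mL; 2-fold serial drug dilutions per CLSI. APAE006: P. aeruginosa with all efflux pumps inactivated.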

The test system of assay [7] is APAE001 (ATCC27853). As to the kind of experiment: MIC broth microdilution, APAE001. The format is cell-based, P. aeruginosa. Conditions: Pseudomonas aeruginosa, ATCC27853, read-out: MIC APAE001, APAE001 is ATCC27853. An outline of the steps: as §1
Assay [8] has as its system APAE006 in the presence of 8 micrograms per milliliter of polymyxin B nonapeptide. The assay is classed as cell-based, P. aeruginosa. To be noted: in the presence of 8 micrograms per milliliter of polymyxin B nonapeptide. An outline of the steps: as §2

`C[C@@H](NCC(=O)N[C@H](C)[C@H](NC(=O)c1ccc(C#C/C=C/c2ccccc2)cc1)C(=O)NO)c1ccccc1` [Example 105-5]: the MIC in assay [1] is 2 to 16 µg/mL (≈ 3.81 to 30.5 µM); in assay [2] it was 2 to 16 µg/mL (≈ 3.81 to 30.5 µM); in assay [3] it was below 2 µg/mL; in assay [4] it was 16 to 64 µg/mL (≈ 30.5 to 122 µM); in assay [5] it was 16 to 64 µg/mL (≈ 30.5 to 122 µM); in assay [6] it was 2 to 16 µg/mL (≈ 3.81 to 30.5 µM). Also, the MIC in assay [7] lay in the range of 16 to 64 µg/mL (≈ 30.5 to 122 µM). The “MIC APAE006 + PMBN” value in assay [8] is “A (MIC's of 2.0 μg/mL or less = A)”.
`O=C(N[C@H](C(=O)NO)C1CCNCC1)c1ccc(C#Cc2ccc(CN3CCOCC3)cc2)cc1` [Example 65-6, N—((S)-hydroxycarbamoyl-piperidin-4-yl-methyl)-4-(4-morpholin-4-ylmethyl-phenylethynyl)-benzamide]: the MIC in assay [1] was 16 to 64 µg/mL (≈ 33.6 to 134 µM); in assay [2], above 64 µg/mL; in assay [3], 2 to 16 µg/mL (≈ 4.2 to 33.6 µM); in assay [4], 16 to 64 µg/mL (≈ 33.6 to 134 µM); in assay [5], above 64 µg/mL; in assay [6] it was 2 to 16 µg/mL (≈ 4.2 to 33.6 µM). In assay [7], the MIC fell in the range of 16 to 64 µg/mL (≈ 33.6 to 134 µM). Moreover, the “MIC APAE006 + PMBN” value in assay [8] is “A (MIC's of 2.0 μg/mL or less = A)”.
With `C[C@@H](O)[C@H](NC(=O)c1ccc(SCc2ccc(CN3CCOCC3)cc2)cc1)C(=O)NO` [Example 46-4, N-((1S,2R)-2-Hydroxy-1-hydroxycarbamoyl-propyl)-4-(4-morpholin-4-ylmethyl-benzylsulfanyl)-benzamide], the MIC in assay [1] was 16 to 64 µg/mL (≈ 34.8 to 139 µM); in assay [2], 16 to 64 µg/mL (≈ 34.8 to 139 µM); in assay [3], 2 to 16 µg/mL (≈ 4.35 to 34.8 µM); in assay [4], above 64 µg/mL; in assay [5], above 64 µg/mL; in assay [6] it was below 2 µg/mL. Further, the MIC in assay [7] was 16 to 64 µg/mL (≈ 34.8 to 139 µM).
In the case of `C[C@@H](O)[C@H](NC(=O)c1ccc(Cc2ccc(CN3CCOCC3)cc2)cc1)C(=O)NO` [Example 48-5, N-((1S,2R)-2-Hydroxy-1-hydroxycarbamoyl-propyl)-4-(4-morpholin-4-ylmethyl-benzyl)-benzamide], the MIC in assay [1], in assay [2], in assay [3], in assay [4], in assay [5] and in assay [6] was above 64 µg/mL in each case. Besides, the MIC in assay [7] is above 64 µg/mL.
Take `C[C@@H](N)[C@H](NC(=O)c1ccc(C#CC#Cc2ccc(Cl)cc2)cc1)C(=O)NO` [Example 82-8]: the MIC in assay [1] was below 2 µg/mL; in assay [2] it was 2 to 16 µg/mL (≈ 5.05 to 40.4 µM); in assay [3], below 2 µg/mL; in assay [4], above 64 µg/mL; in assay [5] it was above 64 µg/mL; in assay [6] it was below 2 µg/mL. For the same molecule, the MIC in assay [7] was 16 to 64 µg/mL (≈ 40.4 to 162 µM). Also, the “MIC APAE006 + PMBN” value in assay [8] is “A (MIC's of 2.0 μg/mL or less = A)”.
In the case of `C[C@@H](N)[C@H](NC(=O)c1ccc(C#Cc2ccc(CNC3CC3)cc2)cc1)C(=O)NO` [Example 115-2], the MIC in assay [1] is below 2 µg/mL; in assay [2], 2 to 16 µg/mL (≈ 4.92 to 39.4 µM); in assay [3] it was below 2 µg/mL; in assay [4] it was 2 to 16 µg/mL (≈ 4.92 to 39.4 µM); in assay [5], above 64 µg/mL; in assay [6], below 2 µg/mL. Further, the MIC in assay [7] was below 2 µg/mL. In addition, the “MIC APAE006 + PMBN” value in assay [8] is listed as “A (MIC's of 2.0 μg/mL or less = A)”.
As to `C[C@@H](N)[C@H](NC(=O)c1ccc(/C=C/C#Cc2ccncc2)cc1)C(=O)NO` [Example 114-8], the MIC was below 2 µg/mL in assay [1]; 2 to 16 µg/mL (≈ 5.49 to 43.9 µM) in assay [2]; below 2 µg/mL in assay [3]; 2 to 16 µg/mL (≈ 5.49 to 43.9 µM) in assay [4]; 16 to 64 µg/mL (≈ 43.9 to 176 µM) in assay [5]; below 2 µg/mL in assay [6]. The MIC in assay [7] was below 2 µg/mL. Moreover, the “MIC APAE006 + PMBN” value in assay [8] is on record as “A (MIC's of 2.0 μg/mL or less = A)”.
